The source of these data is patent US20130252930A1 (BIOMARIN PHARMACEUTICAL INC., priority 2010, published 2013).

The target in series [1] is T1, CYP17 (human testicular microsome) (Homo sapiens, UniProt P05093).
T1 construct: using microsomal fraction from human testis (Celsis Cat #S00110) as the enzyme source; tissue Celsis S00110; host or cells: human testis microsomal fraction
T1 sequence (P05093 1-508): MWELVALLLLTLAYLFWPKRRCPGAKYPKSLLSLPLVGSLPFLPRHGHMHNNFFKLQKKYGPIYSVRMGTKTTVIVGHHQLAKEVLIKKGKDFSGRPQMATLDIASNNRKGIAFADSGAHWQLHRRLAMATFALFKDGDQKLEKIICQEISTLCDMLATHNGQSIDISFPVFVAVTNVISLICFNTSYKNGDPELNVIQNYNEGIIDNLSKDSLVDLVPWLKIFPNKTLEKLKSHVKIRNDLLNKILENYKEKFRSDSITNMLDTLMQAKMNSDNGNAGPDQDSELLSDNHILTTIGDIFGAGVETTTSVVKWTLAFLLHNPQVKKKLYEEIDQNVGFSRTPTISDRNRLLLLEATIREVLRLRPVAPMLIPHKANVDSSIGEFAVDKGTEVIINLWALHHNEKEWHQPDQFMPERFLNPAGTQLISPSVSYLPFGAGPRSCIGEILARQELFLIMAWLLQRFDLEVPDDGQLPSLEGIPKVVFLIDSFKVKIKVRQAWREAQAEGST
Kind of series: CYP17 enzymatic assay (% inhibition at 1 nM) (Biological Example 12). It is filed as biochemical. To be noted: compound at 1 nM, read-out: CYP17 enzymatic assay % inhibition at 1 nM (Biological Example No. 12).
Method: The assays were performed in 96-well plates. Typical assays were carried out in total 100 μL volume that included test compounds at 1 nM concentration, 1× reaction buffer, 0.5 mM NADPH, 1 μM 17α-hydroxypregnenolone, and 2.5 μL of human testicular microsome (Celsis. Cat #S00110). Reaction without test compound served as a positive control. Reactions were allowed to incubate at 37° C. for 90 min with gentle shaking. The reaction was stopped by directly applying the enzymatic reaction mixture to ELISA plate for evaluation of DHEA concentration according to manufacturer's protocol (IBL America). A standard curve (OD450 vs. DHEA concentration) was generated using purified DHEA. […] Percent inhibition (inhibition %) of the compound was calculated using normalized DHEA concentration based on following formula: 100−([DHEA] of compound/[DHEA] of positive control*100).

A short description of series [2]: in vitro. The conditions noted are these: human, microsomes, pH 7.4.
Method: (§1) The reaction was started with addition of excess NADPH (5 mg/mL, 15 μL in 0.1 M potassium phosphate buffer, 1.0 mM EDTA, pH 7.4), the total volume is 45 μL (compound final concentration was 1 μM). […] 50 μL of the supernatant was transferred from each well into a 96-well sample plate containing 50 μL of ultra-pure water (Millipore) for LC-MS/MS analysis.
Series [3] is described as follows: Rat liver microsome stability assay (Biological Example 8a). The conditions noted are these: liver microsomes, pH 7.4.
Method: Each test compound (1.5 μM, 30 μL) was incubated with rat (BD Gentest, Cat No. 452501) or human (BD Gentest, Cat No. 452161) liver microsomes (0.75 mg/mL, 0.1 M potassium phosphate buffer, 1.0 mM EDTA, pH 7.4) in 96 well plates. The reaction was started with addition of excess NADPH (5 mg/mL, 15 μL in 0.1 M potassium phosphate buffer, 1.0 mM EDTA, pH 7.4), the total volume is 45 μL (compound final concentration was 1 μM). The incubations were terminated at time zero and at 5, 15, 30, and 60 minutes by addition of 135 μL/excess ACN containing internal standard (1S). After quenching, the reaction mixtures was centrifuged (Eppendorf Centrifuge 5810R) at 3220×g for 10 min (4° C.). 50 μL of the supernatant was transferred from each well into a 96-well sample plate containing 50 μL of ultra-pure water (Millipore) for LC-MS/MS analysis. The half-life T1/2=0.693/K (K is the rate constant from a plot of log [concentration] vs. incubation time) was calculated.
Series [4] has as its target T1, CYP17 (human testicular microsome). Kind of series: CYP17 enzymatic assay (% inhibition at 10 nM), version 1 (Biological Example 5). It is filed as biochemical. To be noted: 10 nM compound, DHEA by ELISA, read-out: Biological Example No. 5: CYP17 percent inhibition at 10 nM (version 1). A general note: In an ELISA, binding on a coated surface is turned into a signal by an enzyme label.

Series [5] can be described thus: Human liver microsome stability assay (Biological Example 8b). To be noted: liver microsomes, pH 7.4. (In general: Microsomes from liver hold many membrane-bound enzymes, among them those of drug oxidation.)
Method: as §1
Series [6] addresses T2, Cyp21 enzyme (Human HEK 293-Cyp21 stable transfected cells) (Homo sapiens, UniProt P08686).
T2 construct: expressed in transfected cells
T2 sequence (P08686 1-495): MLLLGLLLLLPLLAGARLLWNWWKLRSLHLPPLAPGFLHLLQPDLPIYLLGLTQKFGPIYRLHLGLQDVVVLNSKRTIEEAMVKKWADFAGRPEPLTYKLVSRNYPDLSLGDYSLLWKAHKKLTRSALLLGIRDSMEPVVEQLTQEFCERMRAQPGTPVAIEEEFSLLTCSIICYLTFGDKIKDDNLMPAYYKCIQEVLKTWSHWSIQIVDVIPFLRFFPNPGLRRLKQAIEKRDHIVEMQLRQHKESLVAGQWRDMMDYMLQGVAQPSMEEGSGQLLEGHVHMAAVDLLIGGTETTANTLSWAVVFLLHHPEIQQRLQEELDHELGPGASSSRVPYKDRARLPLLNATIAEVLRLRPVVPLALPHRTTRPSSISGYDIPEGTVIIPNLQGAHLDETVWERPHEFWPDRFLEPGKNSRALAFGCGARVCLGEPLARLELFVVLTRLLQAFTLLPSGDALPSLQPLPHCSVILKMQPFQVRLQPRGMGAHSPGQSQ
Kind of series: CYP21-HEK293 enzymatic assay (% inhibition at 100 nM) (Biological Example 10). It is filed as cell-based. To be noted: 100 nM compound, HEK 293-Cyp21 cells; read-out: Biological Example No. 10: CYP21-HEK293 percent inhibition at 100 nM. The procedure, abridged:
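HEK293 cells stably expressing human Cyp21 in DMEM + 10% FBS got compound (100 nM reported) for 5 h at 37 °C; 1% methanol served as mock. Progesterone substrate (final 10 μM) was then added for 20 h. DOC in the medium was measured by competitive ELISA (OD 450 nm) against a standard curve.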

Series [7] has as its system rat Cyp11B enzyme (rat adrenal mitochondria). Kind of series: CYP11B enzymatic assay (% inhibition at 100 nM) (Biological Example 9). It is filed as biochemical. To be noted: 100 nM compound, cortisol by ELISA. In outline: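 Sprague Dawley rat adrenal mitochondria were incubated with compound at 100 nM, 0.5 mM NADPH and 0.1 μM 11-deoxycortisol (pH 7.4 Tris buffer) for 60 min at 37 °C. Cortisol was measured by ELISA and corrected by subtracting the no-NADPH background. % inhibition is relative to the no-compound reaction.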

For series [8], the target named is T1, CYP17 (human testicular microsome). Kind of series: CYP17 enzymatic assay (IC50) (Biological Example 4). It is filed as biochemical.
Series [9] addresses T3, CYP17 (H295R cells) (Homo sapiens, UniProt P05093).
T3 construct: endogenous in cells; host or cells: H295R cells
T3 sequence (P05093 1-508): T1 sequence (P05093 1-508)
Kind of series: CYP17 cellular assay (IC50), testosterone in H295R cells (Biological Example 7). It is filed as cell-based. In outline: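 H295R cells cultured 24 h, then exposed to compound at 100, 10, 1, 0.1 nM final in serum-free DMEM/F-12 with ITS+ and 0.1% methanol for 24 h at 37 °C. Medium testosterone measured by ELISA and plotted against compound concentration.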

Setting [10] is: human testicular microsome, DHEA by ELISA, read-out: Biological Example No. 4: CYP17 enzymatic assay IC50.
Setting [11] is: H295R cells, testosterone by ELISA, 24 hours, read-out: Biological Example No. 7: CYP17 cellular assay IC50.

The structures appear in SMILES notation. Like-named read-outs stand apart in the source and are kept apart here.

Regarding `CC(=O)N[C@@H]1CC[C@@]2(C)C(CC[C@H]3C4=CC=C(c5cccnc5)[C@@]4(C)CC[C@@H]32)C1` (stereo partly drawn) [Compound 244, N-((3R,10S,13S)-10,13-dimethyl-17-(pyridin-3-yl)-2,3,4,5,6,7,8,9,10,11,12,13-dodecahydro-1H-cyclopenta[a]phenanthren-3-yl)acetamide], in [1], the inhibition at 0.001 µM was > 50%. The half-life at 1 μM in series [2] lay in the range of 1 to 50 min.
For `C[C@]12CCNC(=O)C=C1CC[C@@H]1[C@@H]2CC[C@]2(C)C(n3ccnn3)=CC[C@@H]12` [Compound 59], the half-life at 1 μM is 1 to 10 min in series [3] and > 50 min in series [5]. Further, the inhibition at 0.01 µM in [4] is > 80%. In series [6], the inhibition at 0.1 µM was < 30%. Besides, the “Biological Example No. 9: CYP11B percent inhibition at 100 nM” value in series [7] is given as “na (“na” means the compound was not active under the conditions tested)”.
With `C[C@]12CC(=O)C[C@@H]1CC[C@@H]1[C@@H]2CC[C@]2(C)C(n3ccnc3)=CC[C@@H]12` [Compound 108, (3aS,3bS,5aS,8aS,8bR,10aS)-6-(1H-imidazol-1-yl)-3a,5a-dimethyl-3,3a,3b,4,5,5a,8,8a,8b,9,10,10a-dodecahydrodicyclopenta[a,f]naphthalen-2(1H)-one], the half-life at 1 μM in series [3] is 1 to 10 min; in series [5], > 50 min. The inhibition at 0.01 µM in series [4] was > 80%. The IC50 in [8] (setting [10]) is < 11 nM.
In the case of `C[C@]12CC[C@H]3[C@@H](CC[C@H]4C[C@@H](O)CC[C@@]43C)C1=CC=C2n1ccnc1` [Compound 170, (5S,8R,9S,10S,13S)-17-(1H-imidazol-1-yl)-10,13-dimethyl-2,3,4,5,6,7,8,9,10,11,12,13-dodecahydro-1H-cyclopenta[a]phenanthren-3-ol], the IC50 in series [9] (setting [11]) is < 15 nM; in [8] it was < 11 nM. The half-life at 1 μM was 10 to 60 min in series [3] and > 50 min in [5]. The inhibition at 0.01 µM in [4] was > 80%.
Regarding `C[C@]12CC[C@H]3[C@@H](CC[C@H]4CC(=O)NCC[C@@]43C)C1=CC=C2c1cccnc1` [Compound 165, (5aS,5bS,7aS,10bR,12aS)-5a,7a-dimethyl-8-(pyridin-3-yl)-3,4,5,5a,5b,6,7,7a,10b,11,12,12a-dodecahydrocyclopenta[5,6]naphtho[1,2-d]azepin-2(1H)-one], the half-life at 1 μM in series [3] is 1 to 10 min; in series [5], 1 to 50 min. Moreover, the inhibition at 0.01 µM in series [4] was > 80%. Further, in series [8] (setting [10]), the IC50 is < 11 nM. In addition, the inhibition at 0.1 µM in series [6] is < 30%. In addition, in series [7], the “Biological Example No. 9: CYP11B percent inhibition at 100 nM” value is given as “na (“na” means the compound was not active under the conditions tested)”.
For the compound `CCNC(=O)N[C@@H]1CC[C@@]2(C)C(=CC[C@@H]3[C@@H]2CC[C@]2(C)C(c4cccnc4)=CC[C@@H]32)C1` [Compound 232, 1-((3R,10R,13S)-10,13-dimethyl-17-(pyridin-3-yl)-2,3,4,7,8,9,10,11,12,13,14,15-dodecahydro-1H-cyclopenta[a]phenanthren-3-yl)-3-ethylurea], the inhibition at 0.001 µM in series [1] is > 50%. The compound further displayed a half-life at 1 μM in series [2] of 1 to 50 min.
`C[C@]12CCNC(=O)C[C@@H]1CC[C@@H]1[C@@H]2CC[C@]2(C)C(n3ccnn3)=CC[C@@H]12` [Compound 137]: the IC50 in [9] (setting [11]) is < 15 nM; in series [8] (setting [10]), < 11 nM. Moreover, the half-life at 1 μM in series [3] was 10 to 60 min; in series [5] it was > 50 min. In addition, in [4], the inhibition at 0.01 µM is > 80%.
Turning to `C[C@]12CC[C@H]3[C@@H](CCC4=CC(=O)CC[C@@]43C)C1=CC=C2n1ccnc1` [Compound 75, (10R,13S)-17-(1H-imidazol-1-yl)-10,13-dimethyl-6,7,8,9,10,11,12,13-octahydro-1H-cyclopenta[a]phenanthren-3(2H)-one], the half-life at 1 μM in [3] is 10 to 60 min; in series [5], > 50 min. In addition, the inhibition at 0.01 µM in [4] was > 80%. Also, the IC50 in [8] (setting [10]) is < 11 nM. The inhibition at 0.1 µM in series [6] is < 30%. The “Biological Example No. 9: CYP11B percent inhibition at 100 nM” value in series [7] is on record as “U (U means the compound had a percent inhibition of greater than or equal to 32%)”.
The compound `C[C@]12CCNC(=O)C=C1CC[C@@H]1[C@@H]2CC[C@]2(C)C(c3cnccn3)=CC[C@@H]12` [Compound 61, (5aR,7aS)-5a,7a-dimethyl-8-(pyrazin-2-yl)-4,5,5a,5b,6,7,7a,10,10a,10b,11,12-dodecahydrocyclopenta[5,6]naphtho[2,1-c]azepin-3(2H)-one] came in with a half-life at 1 μM in series [3] of 1 to 10 min. In addition, the inhibition at 0.01 µM in series [4] is > 80%. Besides, in series [6], the inhibition at 0.1 µM is ≥ 30%.
`COC(=O)N[C@@H]1CC[C@@]2(C)C(CCC3C2CC[C@]2(C)C(c4cccnc4)=CCC32)C1` (stereo partly drawn) [Compound 219, methyl ((3R,10S,13S)-10,13-dimethyl-17-(pyridin-3-yl)-2,3,4,5,6,7,8,9,10,11,12,13,14,15-tetradecahydro-1H-cyclopenta[a]phenanthren-3-yl)carbamate]: in series [1], the inhibition at 0.001 µM was > 50%. Also, the half-life at 1 μM in [2] is 1 to 50 min.
For `C[C@]12CCNC(=O)C=C1CC[C@@H]1[C@@H]2CC[C@]2(C)C(c3cncnc3)=CC[C@@H]12` [Compound 60, (5aR,7aS)-5a,7a-dimethyl-8-(pyrimidin-5-yl)-4,5,5a,5b,6,7,7a,10,10a,10b,11,12-dodecahydrocyclopenta[5,6]naphtho[2,1-c]azepin-3(2H)-one], the half-life at 1 μM in series [3] was 1 to 10 min. The inhibition at 0.01 µM in series [4] was 50 to 80%. For the same compound, the inhibition at 0.1 µM in series [6] is ≥ 30%.
As to `CN1CC[C@@]2(C)C(=CC1=O)CC[C@@H]1[C@@H]2CC[C@]2(C)C(n3ccnc3)=CC[C@@H]12` [Compound 146], the results for the half-life at 1 μM in series [3] and in [5] were 10 to 60 min and 1 to 50 min, respectively. The inhibition at 0.01 µM in series [4] is > 80%. The IC50 in series [8] (setting [10]) was < 11 nM. In addition, in series [6], the inhibition at 0.1 µM was < 30%. Further, the “Biological Example No. 9: CYP11B percent inhibition at 100 nM” value in series [7] is “U (U means the compound had a percent inhibition of greater than or equal to 32%)”.
Regarding `Cc1cncc(C2=CC[C@H]3[C@@H]4CCC5=CC(=O)NCC[C@]5(C)[C@H]4CC[C@]23C)c1` [Compound 51], in [3], the half-life at 1 μM was in the range of 10 to 60 min. The inhibition at 0.01 µM in series [4] fell in the range of 50 to 80%. For the same compound, in series [8] (setting [10]), the IC50 was < 11 nM. Further, the inhibition at 0.1 µM in series [6] is ≥ 30%.
For `C[C@]12CC[C@H]3[C@@H](CC[C@H]4C[C@@H](O)CC[C@@]43C)C1=CC=C2n1ccnn1` [Compound 176, (3S,8R,9S,10S,13S)-10,13-dimethyl-17-(1H-1,2,3-triazol-1-yl)-2,3,4,5,6,7,8,9,10,11,12,13-dodecahydro-1H-cyclopenta[a]phenanthren-3-ol], the figures for the IC50 in series [9] and in [8] were > 100 nM and > 25 nM, respectively. The half-life at 1 μM in [3] fell in the range of 1 to 10 min.

As usually defined, the inhibition is the change of the read-out against control, counted positive when it falls. For orientation: half-life means the time in which the quantity being followed falls by half. Read a low half-life as fast loss. As a reminder, the IC50 is the concentration at which inhibition is half-maximal.
